Where two headings read alike, the source gives them in different places.
Experiments:
[1] = molecular target: 27-mer model of the bacterial A site region, full ribonucleotide R; experiment: Binding to 27-mer A site model as full ribonucleotide (R); conditions: RNA R
Protocol: (§1) The 27-mer model of a segment of the bacterial A site region has been prepared as a full ribonucleotide (see FIG. 27, compound R), and as a chimeric 2′-O-methylribonucleotide containing three deoxyadenosine residues (see FIG. 27, compound C). RNAs R and C have been prepared using conventional phosphoramidite chemistry on solid support. Phosphoramidites were purchased from Glen Research and used as 0.1 M solutions in acetonitrile. RNA R was prepared following the procedure given in Wincott, et al., Nucl. Acids Res., 1995, 23, 2677-2684, the disclosure of which is incorporated herein by reference in its entirety. RNA C was prepared using standard coupling cycles, deprotected, and precipitated from 10 M NH4OAc. The aminoglycoside paromomycin binds to both R and C with kD values of 0.25 and 0.45 micromolar, respectively. The reported kD values are around 0.2 μM. […]
(§2) The mass spectrum obtained from a 5 μM solution of C mixed with 125 nM paromomycin (FIG. 28A) contains [M-5H]5− ions from free C at m/z 1783.6 and the [M-5H]5− ions of the paromomycin-C complex at m/z 1907.3. […] Signals from the [M-4H]4− ions of C and the complex are detected at m/z 2229.8 and 2384.4, respectively. […] Fragment ions are detected at m/z 1005.6 (w6)2−, 1065.8 (a7-B)2−, 1162.6 (w7)2−, 1756.5 (M-Ad)5−, 2108.9 (w21-Ad)3−, 2153.4 (a20-B)3−, 2217.8 (w21)3−, and 2258.3 (a21-B)3−. […]

[2] = molecular target: 27-mer model of the bacterial A site region, chimeric C; experiment: Binding to 27-mer A site model as chimeric 2'-O-methylribonucleotide with three deoxyadenosines (C); conditions: RNA C
Protocol: as §1, §2

[3] = molecular target: prokaryotic 16S rRNA (the A-site); conditions: cited from earlier work

Compound: NC[C@@H]1O[C@H](O[C@H]2[C@@H](O)[C@H](O[C@@H]3[C@@H](O)[C@H](N)C[C@H](N)[C@H]3O[C@H]3O[C@H](CO)[C@@H](O)[C@H](O)[C@H]3N)O[C@@H]2CO)[C@H](N)[C@@H](O)[C@@H]1O [paromomycin]
- Kd [1]: 250 nM
- Kd [2]: 450 nM
- Kd ([3]; 16S A-site, previously reported, listed as Paromomycin, read-out: literature / solution KD): ~200 nM
- Kd ([3]; 16S A-site, previously reported, read-out: literature / solution KD): 200 nM
- Kd ([3]; Recht 1996, Wong 1998, Wang 1997, read-out: reported kD values): ~200 nM
- Kd ([3]; test 27-mer RNA, known from other experiments or literature, read-out: binding affinity): ~1000 nM
